Results reported in patent publication US12564601B2, “Methods for treating hepatitis B infection” (priority 2017, dated 2026).
Where two headings read alike, the source gives them in different places.

Tests used:
HBV = test: Entecavir combination study in HBV-expressing mouse (HDI model); assay type: in vivo, mice; settings: for circulating (plasma) HBsAg / hepatic viral RNAs (liver HBV mRNA and pgRNA): HDI model; for circulating (plasma) HBsAg: ELISA; for hepatic viral RNAs (liver HBV mRNA and pgRNA): qPCR
Protocol: The RNAi oligonucletoides targeting the S antigen impact both the viral polymerase and HBsAg protein. In this study, the combinational effects of HBV(s)-219P2 as a monotherapy and combinational treatment with entecavir was explored in an HBV-expressing mouse (HDI model) for antiviral activity.
Mice were administered daily oral dosing of 500 ng/kg Entecavir (ETV) for 14 days. A single subcutaneous administration of HBV(s)-219P2 took place. Circulating viral load (HBV DNA) was measured by qPCR (FIG. 15A), plasma HBsAg level was measured by ELISA (FIG. 15B), and liver HBV mRNA and pgRNA levels were measured by qPCR.

HBsAg = test: Plasma HBsAg suppression, S- versus X-targeting oligonucleotides, HDI model; assay type: in vivo, mice; settings: single saturating 9 mg/kg SC dose, n=3
Protocol: In this study, HBV-expressing mice (HDI model) were administered HBV(s)-219P2, GalXC-HBVX (same sequence as the GalXC-HBVX used in FIGS. 12A and 12B), or a combination of the two RNAi oligonucleotides and plasma HBsAg level two weeks or nine weeks post dose were monitored.

HBsAg mRNA = test: Time course of HBsAg mRNA expression in HDI model of HBV; assay type: in vivo, mouse; settings: three once-weekly doses of 3 mg/kg
Protocol: The durational effects of the HBV(s)-219P1 oligonucleotide were examined in two different mouse models of HBV—an HDI model, which is cccDNA-dependent, and an AAV model, which is cccDNA independent. A time course (12 weeks) analysis of HBsAg mRNA expression was performed in the context of a treatment involving three once-weekly doses of 3 mg/kg with the HBV(s)-219P1 oligonucleotide targeting HBsAg mRNA compared with vehicle control and an RNAi oligonucleotide targeting HBxAg mRNA in the HDI model of HBV (FIG. 12A).

[1] = system: HBV Genotype A S ORF reporter sequence; test: psiCHECK2 dual-luciferase reporter mismatch assay in HeLa cells; assay type: cell-based
Text: A psiCHECK-2 dual-luciferase reporter system was utilized to evaluate the effects of a mismatch at a selected position in each of HBV-217, HBV-219, HBV-254, HBV-255, and HBV-258. The psiCHECK vector enables monitoring of changes in expression of a target gene fused to a reporter gene, where active RNAi degrades the fusion construct to produce a corresponding decrease in reporter signal. The diagram in FIG. 6 generically depicts the vector utilized in these assays. The parent partial reporter sequence contained 120 base-pair fragments from Genotype A (GenBank: AM282986.1) around target sites of interest in the S ORE. […]
The psiCHECK2 reporter assays with each oligonucleotide were conducted over a three-day period using a 6-point, 5-fold serial dilution starting at 1 nM transfected in HeLa cells. […] The cells were then incubated at 37° C. in a CO2 incubator until the cells were ready to harvest and assay for the target gene. On day 3, 100 μL of Dual-Glo Reagent was added to each well, mixed and incubated for 10 minutes before reading the luminescence. A further 100 μL of Dual-Glo Stop & Glo was added to each well, mixed and incubated for 10 minutes before reading the luminescence. […] The EC50s values determined for each oligonucleotide are shown in Table 3 with additional specifications.

HBsAg viral transcript = test: HBsAg levels in HDI-mice after subcutaneous HBV-254; assay type: in vivo
Protocol: Preclinical potency was further evaluated in mice following a QW×3 dosing regimen in which HBV-254 was subcutaneously administered at 3 mg/kg (FIG. 3). The administration points are indicated by arrows in the figure. HBsAg levels were monitored in both oligonucleotide treated and untreated control mice for a period spanning 147 days.

C=C1[C@H](CO)[C@@H](O)C[C@@H]1n1cnc2c(=O)[nH]c(N)nc21 [entecavir, Entecavir]
mean decrease in HBV DNA in plasma relative to PBS (HBV; 500 ng/kg PO daily for 14 days, n=6): ~1.6 log | circulating (plasma) HBsAg (HBV): No significant decrease | circulating (plasma) HBsAg (HBV; listed as ETV): no efficacy | hepatic viral RNAs (liver HBV mRNA and pgRNA) (HBV): No significant decrease | hepatic viral RNAs (liver HBV mRNA and pgRNA) (HBV; listed as ETV): no efficacy

GalXC-HBVX: RNAi oligonucleotide targeting HBxAg mRNA, sense strand SEQ ID NO: 39, antisense strand SEQ ID NO: 40 (sense UGCACUUCGCGUCACCUCUAGCAGCCGAAAGGCUGC; antisense UAGAGGUGACGCGAAGUGCAGG; GalNAc conjugate (GalXC), modification pattern not given here)
plasma HBsAg suppression 9 weeks post dose / duration (HBsAg): significant recovery of HBsAg | duration of activity (HBsAg mRNA): shorter duration | reduction of HBsAg mRNA expression (HBsAg mRNA; 12-week time course): ~3.0 log

HBV-254: HBsAg-targeting duplex oligonucleotide, sense strand SEQ ID NO: 23, antisense strand SEQ ID NO: 24 (sense GUGGUGGACUUCUCUCAAUAGCAGCCGAAAGGCUGC; antisense UAUUGAGAGAAGUCCACCACGG; listed as RNA, chemistry not given here)
EC50 ([1]; mismatch duplex, single mismatch to reporter at stated guide position, read-out: MM EC50s): 0.096 nM | EC50 ([1]; parent duplex, 100% homology to reporter, read-out: Parent EC50s): 0.037 nM | HBsAg levels relative to control (HBsAg viral transcript; QW×3, 3 mg/kg subcutaneous, monitored 147 days (FIG. 3)): Diminished HBsAg levels persisted in treated mice throughout the entirety of the study | HBsAg levels (HBsAg viral transcript; single dose evaluation, subcutaneous, HDI-mice (FIG. 2)): systematically reduced HBsAg levels in mice with increasing dosage
